Data on 17 compounds can be found in patent US8492372B2, “Modulators of dopamine neurotransmission” (Integrated Research Laboratories Sweden AB, priority 2008, dated 2013).

What is called melting point is the temperature of the solid-liquid transition.

The structures appear in SMILES notation. Counter-ions that a name gives are not always drawn.

Data set [1] has as its system DOPAC (3,4-dihydroxyphenylacetic acid) in the rat striatum. The data set can be described thus: Increase of DOPAC in the rat striatum after systemic administration (in vivo neurochemistry). As to conditions: estimated ED50 on increase of DOPAC in rat striatum, curve fit, range in brackets covers 95% of fits; for ED50: Rattus norvegicus, sc; for ED50 DOPAC: s.c. An excerpt:
After the behavioural activity sessions, the rats are decapitated and their brains rapidly taken out and put on an ice-cold petri-dish. The limbic forebrain, the striatum, the frontal cortex and the remaining hemispheral parts of each rat are dissected and frozen. Each brain part is subsequently analyzed with respect to its content of monoamines and their metabolites.
The monoamine transmitter substances (NA (noradrenaline), DA (dopamine), 5-HT (serotonin)) as well as their amine (NM (normethanephrine), 3-MT (3-methoxytyramine)) and acid (DOPAC (3,4-dihydroxyphenylacetic acid), 5-HIAA (5-hydroxyindoleacetic acid), HVA (homovanillic acid)) metabolites are quantified in brain tissue homogenates by HPLC separations and electrochemical detection.
The analytical method is based on two chromatographic separations dedicated for amines or acids. Two chromatographic systems share a common auto injector with a 10-port valve and two sample loops for simultaneous injection on the two systems. Both systems are equipped with a reverse phase column (Luna C18(2), dp 3 μm, 50*2 mm i.d., Phenomenex) and electrochemical detection is accomplished at two potentials on glassy carbon electrodes (MF-1000, Bioanalytical Systems, Inc.). The column effluent is passed via a T-connection to the detection cell or to a waste outlet. This is accomplished by two solenoid valves, which block either the waste or detector outlet. By preventing the chromatographic front from reaching the detector, better detection conditions are achieved. The aqueous mobile phase (0.4 ml/min) for the acid system contains citric acid 14 mM, sodium citrate 10 mM, MeOH 15% (v/v) and EDTA 0.1 mM. Detection potentials relative to Ag/AgCl reference are 0.45 and 0.60V. The aqueous ion pairing mobile phase (0.5 ml/min) for the amine system contains citric acid 5 mM, sodium citrate 10 mM, MeOH 9% (v/v), MeCN 10.5% v/v), decane sulfonic acid 0.45 mM, and EDTA 0.1 mM. Detection potentials relative to Ag/AgCl reference are 0.45 and 0.65V.
ED50 values for the increase of DOPAC in striatum are calculated by curve fitting.

Data set [2] relates to Locomotor activity in drug-naive rats. The data set is described as follows: Locomotor activity in drug-naive rats (in vivo behaviour). Also on record: species or system rat. As to conditions: recorded for 60 minutes immediately after drug administration. The text has this:
Photobeam sensors are spaced 2.5 cm apart.

The subject of data set [3] is amphetamine-induced hyper-locomotion. The data set can be described thus: Reduction of amphetamine-induced hyper-locomotion (in vivo behaviour). As to conditions: range in brackets covers 95% of fits; for ED50: Rattus norvegicus, read-out: ED50 reduction of amphetamine-induced hyper-locomotion, rats pre-treated with d-amphetamine 1.5 mg/kg i.p., test compound s.c., curve fit.

As to `CCCNCC1OCc2ccc(S(C)(=O)=O)cc2O1` (centres unmarked) (as salt: hydrochloric acid salt) [Example 3, N-{[7-(METHYLSULFONYL)-4H-1,3-BENZODIOXIN-2-YL]METHYL}PROPAN-1-AMINE], the melting point was determined as 213 °C.
On the same count and under the same terms, as for `CCCNCC1OCc2c(F)cc(Br)cc2O1` (centres unmarked) (as salt: oxalic acid salt) [Example 16, N-[(7-BROMO-5-FLUORO-4H-1,3-BENZODIOXIN-2-YL)METHYL]PROPAN-1-AMINE], the figure is 215 °C; as for `O=S(=O)(c1ccc2c(c1)OC(CN1CCCC1)OC2)C(F)(F)F` (centres unmarked) (as salt: fumaric acid salt) [Example 7, 1-({7-[(TRIFLUOROMETHYL)SULFONYL]-4H-1,3-BENZODIOXIN-2-YL}METHYL)PYRROLIDINE], 184 °C.
`CCCNCC1OCc2c(F)cc(S(C)(=O)=O)cc2O1` (centres unmarked) [Example 17, N-{[5-FLUORO-7-(METHYLSULFONYL)-4H-1,3-BENZODIOXIN-2-YL]METHYL}PROPAN-1-AMINE]: the ED50 in data set [1] is 8.6 µmol/kg. The Locomotor activity in data set [2] (3.7 μmol/kg) was 10520 ± 1381 counts/60 min ± SEM; in data set [2] (11 μmol/kg), 8330 ± 2194 counts/60 min ± SEM; in data set [2] (33 μmol/kg), 3319 ± 140 counts/60 min ± SEM.
`CCCNCC1OCc2ccc(C(F)(F)F)cc2O1` (centres unmarked) [Example 1, N-{[7-(TRIFLUOROMETHYL)-4H-1,3-BENZODIOXIN-2-YL]METHYL}PROPAN-1-AMIN]: the ED50 in data set [1] is 17 µmol/kg; in data set [3] it was 3.9 µmol/kg. The results for the Locomotor activity in data set [2] (3.7 μmol/kg), in data set [2] (11 μmol/kg) and in data set [2] (33 μmol/kg) were 8038 ± 1487 counts/60 min ± SEM, 7279 ± 968 counts/60 min ± SEM and 2682 ± 802 counts/60 min ± SEM, respectively.
Turning to `CCCNCC1OCc2ccc(S(C)(=O)=O)cc2O1` (single isomer, unassigned; (-)) [Example 4, (−)-N-{[7-(METHYLSULFONYL)-4H-1,3-BENZODIOXIN-2-YL]METHYL}PROPAN-1-AMINE], the “ED50 DOPAC” value in data set [1] was 27 (23-31) μmol/kg. For the same compound, the Locomotor activity in data set [2] (3.7 μmol/kg) is reported as 9158 ± 2094 counts/60 min ± SEM; in data set [2] (11 μmol/kg) it was 11153 ± 1257 counts/60 min ± SEM; in data set [2] (33 μmol/kg), 12588 ± 331 counts/60 min ± SEM. The “ED50 reduction of amphetamine-induced hyper-locomotion” value in data set [3] (rats pre-treated with d-amphetamine 1.5 mg/kg i.p., test compound s.c., curve fit) is 27 (19-35) μmol/kg.
The compound `CCNCC1OCc2ccc(S(=O)(=O)C(F)(F)F)cc2O1` (centres unmarked) (as salt: hydrochloric acid salt) returned a melting point of 169 °C.
As to `O=S(=O)(c1ccc2c(c1)OC(CN1CCCC1)OC2)C(F)(F)F` (centres unmarked) [Example 7, 1-({7-[(TRIFLUOROMETHYL)SULFONYL]-4H-1,3-BENZODIOXIN-2-YL}METHYL)PYRROLIDINE], the results for the ED50 in data set [1] and in data set [3] were 48 µmol/kg and 50 µmol/kg, respectively. Besides, the values for the Locomotor activity in data set [2] (3.7 μmol/kg), in data set [2] (11 μmol/kg) and in data set [2] (33 μmol/kg) were 9548 ± 1455 counts/60 min ± SEM, 7270 ± 278 counts/60 min ± SEM and 11818 ± 2775 counts/60 min ± SEM, respectively.
Turning to `CCCNCC1OCc2cc(F)c(Br)cc2O1` (centres unmarked) (as salt: hydrochloric acid salt) [Example 19, N-[(7-BROMO-6-FLUORO-4H-1,3-BENZODIOXIN-2-YL)METHYL]PROPAN-1-AMINE], the melting point is 182 °C.
Take `CCCNCC1OCc2cc(F)c(S(C)(=O)=O)cc2O1` (centres unmarked) [Example 20, N-{[6-FLUORO-7-(METHYLSULFONYL)-4H-1,3-BENZODIOXIN-2-YL]METHYL}PROPAN-1-AMINE]: the ED50 in data set [1] is 11 µmol/kg. Moreover, the Locomotor activity is listed as 8830 ± 1277 counts/60 min ± SEM in data set [2] (3.7 μmol/kg), 10181 ± 1385 counts/60 min ± SEM in data set [2] (11 μmol/kg) and 5502 ± 474 counts/60 min ± SEM in data set [2] (33 μmol/kg).
`CCCNCC1OCc2ccc(S(=O)(=O)C(F)(F)F)cc2O1` (centres unmarked) (as salt: hydrochloric acid salt) [Example 8, N-({7-[(TRIFLUOROMETHYL)SULFONYL]-4H-1,3-BENZODIOXIN-2-YL}METHYL)PROPAN-1-AMINE] returned a melting point of 201 °C.
The same measure, in the same setting: for `CNCC1OCc2ccc(S(C)(=O)=O)cc2O1` (centres unmarked) (as salt: hydrochloric acid salt) [Example 12, N-METHYL-1-[7-(METHYLSULFONYL)-4H-1,3-BENZODIOXIN-2-YL]METHANAMINE] the value was 225 °C.
For `CCCNCC1OCc2ccc(S(C)(=O)=O)cc2O1` (single isomer, unassigned; (+)) [Example 5, (+)-N-{[7-(METHYLSULFONYL)-4H-1,3-BENZODIOXIN-2-YL]METHYL}PROPAN-1-AMINE], in data set [1], the “ED50 DOPAC” value was 12 (9.3-14) μmol/kg. The figures for the Locomotor activity in data set [2] (3.7 μmol/kg), in data set [2] (11 μmol/kg) and in data set [2] (33 μmol/kg) were 9173 ± 3160 counts/60 min ± SEM, 8274 ± 801 counts/60 min ± SEM and 4854 ± 771 counts/60 min ± SEM, respectively. Moreover, the ED50 in data set [3] was determined as 15 µmol/kg.
For the compound `CCCNCC1OCc2ccc(C(F)(F)F)cc2O1` (centres unmarked) (as salt: hydrochloric acid salt) [Example 1, N-{[7-(TRIFLUOROMETHYL)-4H-1,3-BENZODIOXIN-2-YL]METHYL}PROPAN-1-AMIN], the melting point came to 203 °C.
For the compound `CS(=O)(=O)c1ccc2c(c1)OC(CN1CCCCC1)OC2` (centres unmarked) [Example 21, 1-{[7-(METHYLSULFONYL)-4H-1,3-BENZODIOXIN-2-YL]METHYL}PIPERIDINE], the ED50 in data set [1] is 13 µmol/kg; in data set [3], 14 µmol/kg. Also, the Locomotor activity in data set [2] (3.7 μmol/kg) is 8285 ± 721 counts/60 min ± SEM; in data set [2] (11 μmol/kg) it was 6585 ± 707 counts/60 min ± SEM; in data set [2] (33 μmol/kg), 4197 ± 923 counts/60 min ± SEM.
In the same order, the values of `CCCNCC1OCc2ccc(S(=O)(=O)C(F)(F)F)cc2O1` (centres unmarked) [Example 8, N-({7-[(TRIFLUOROMETHYL)SULFONYL]-4H-1,3-BENZODIOXIN-2-YL}METHYL)PROPAN-1-AMINE] are 7 µmol/kg, 4.9 µmol/kg, 11601 ± 583 counts/60 min ± SEM, 7064 ± 1032 counts/60 min ± SEM and 2641 ± 757 counts/60 min ± SEM.
As for `CCCNCC1OCc2c(F)cc(Br)cc2O1` (centres unmarked) [Example 16, N-[(7-BROMO-5-FLUORO-4H-1,3-BENZODIOXIN-2-YL)METHYL]PROPAN-1-AMINE], in data set [1], the ED50 was 20 µmol/kg. Further, the Locomotor activity is 8637 ± 1217 counts/60 min ± SEM in data set [2] (3.7 μmol/kg), 7537 ± 2127 counts/60 min ± SEM in data set [2] (11 μmol/kg) and 7393 ± 1395 counts/60 min ± SEM in data set [2] (33 μmol/kg).
